{
  "source": "patent US20070191402A1",
  "about": "“Method of searching substrate having antidiabetic activity” (KYOWA HAKKO KOGYO CO., LTD., priority 2002, published 2007)",
  "test_system": "pancreatic β cell (MIN6 cell)",
  "assay": "Inhibition of binding of [3H]-labeled Compound 16 to pancreatic β cell",
  "parameters": "species or system murine",
  "details": "test compound 1 μmol/l; 10 nmol/l [3H]-labeled Compound 16; MIN6 cell, 4° C.",
  "method": "MIN6 cell cultured to almost confluence in a 24-well plate for cell culture (manufactured by Corning) was washed twice with KRH buffer (119 mmol/l NaCl, 4.74 mmol/KCl, 2.54 mmol/l calcium chloride (CaCl2), 1.19 mmol/l magnesium sulfate (MgSO4), 1.19 mmol/l potassium dihydrogen phosphate (KH2PO4), 10 mmol/l HEPES, 2 mmol/l glucose, 0.1 w/v % bovine serum albumin (BSA), pH 7.3). Subsequently, the KRH buffer was added at 1 ml per well, for preincubation at 37° C. for 45 minutes. After preincubation, the supernatant was discarded, and 0.15 ml of the KRH buffer, […] at 4° C. for one hour or longer until the reaction reached equilibrium. Subsequently, the cell was washed twice using the KRH buffer. The KRH buffer was added at 2 ml per well, which was then left to stand at room temperature for 20 minutes. The cell was again washed twice by using the KRH buffer. The radioactivity remaining in each well was counted with a liquid scintillation counter to determine the binding amount.\nThe difference between the binding amount of the [^3H]-labeled Compound 16 (total binding amount) under conditions with no addition of any test compound and the binding amount of the [^3H]-labeled Compound 16 (non-specific binding amount) under conditions in the presence of the Compound 16 at 10 μmol/l was defined as specific binding amount.\nAccording to the method described in Example 5, a substance having anti-diabetic activity was screened for, using the inhibitory activity of the binding between pancreatic β cells and [^3H]-labeled Compound 16. A tested substance was dissolved in dimethylsulfoxide and then added to give a final concentration of 1 μmol/l. The radioactivity with addition of the unlabeled Compound 16 was defined as the non-specific binding amount and the radioactivity without addition of the unlabeled Compound 16 was defined as the total binding amount, and then the individual specific binding amounts were calculated by the method described in Example 6. Using the following formula, the binding inhibition ratio was determined. [formula]",
  "data": [
    {"compound": "CCCN1C(=O)N2C[C@@H](Cc3ccccc3)N=C2c2[nH]c(C3CCCC3)nc21", "note": "[compound 16]", "values": [
      {"measurement": "Binding inhibitory activity (%)", "value": 100.0, "unit": "%"}
    ]}
  ]
}
